Experimental data: ChEMBL document CHEMBL1201862, “PubChem BioAssay data set” (2004)
Active and inactive are the calls of the source.

Assays:
[1] = target: Tyrosyl-DNA phosphodiesterase 2 (Homo sapiens, UniProt O95551); assay: human TDP2 enzyme inhibitors, dose response, biochemical, epi absorbance, IC50 (AID 743297)
[2] = target: T1, Apoptotic protease-activating factor 1 (Homo sapiens, UniProt O14727); format: functional
T1 sequence (O14727 whole entry): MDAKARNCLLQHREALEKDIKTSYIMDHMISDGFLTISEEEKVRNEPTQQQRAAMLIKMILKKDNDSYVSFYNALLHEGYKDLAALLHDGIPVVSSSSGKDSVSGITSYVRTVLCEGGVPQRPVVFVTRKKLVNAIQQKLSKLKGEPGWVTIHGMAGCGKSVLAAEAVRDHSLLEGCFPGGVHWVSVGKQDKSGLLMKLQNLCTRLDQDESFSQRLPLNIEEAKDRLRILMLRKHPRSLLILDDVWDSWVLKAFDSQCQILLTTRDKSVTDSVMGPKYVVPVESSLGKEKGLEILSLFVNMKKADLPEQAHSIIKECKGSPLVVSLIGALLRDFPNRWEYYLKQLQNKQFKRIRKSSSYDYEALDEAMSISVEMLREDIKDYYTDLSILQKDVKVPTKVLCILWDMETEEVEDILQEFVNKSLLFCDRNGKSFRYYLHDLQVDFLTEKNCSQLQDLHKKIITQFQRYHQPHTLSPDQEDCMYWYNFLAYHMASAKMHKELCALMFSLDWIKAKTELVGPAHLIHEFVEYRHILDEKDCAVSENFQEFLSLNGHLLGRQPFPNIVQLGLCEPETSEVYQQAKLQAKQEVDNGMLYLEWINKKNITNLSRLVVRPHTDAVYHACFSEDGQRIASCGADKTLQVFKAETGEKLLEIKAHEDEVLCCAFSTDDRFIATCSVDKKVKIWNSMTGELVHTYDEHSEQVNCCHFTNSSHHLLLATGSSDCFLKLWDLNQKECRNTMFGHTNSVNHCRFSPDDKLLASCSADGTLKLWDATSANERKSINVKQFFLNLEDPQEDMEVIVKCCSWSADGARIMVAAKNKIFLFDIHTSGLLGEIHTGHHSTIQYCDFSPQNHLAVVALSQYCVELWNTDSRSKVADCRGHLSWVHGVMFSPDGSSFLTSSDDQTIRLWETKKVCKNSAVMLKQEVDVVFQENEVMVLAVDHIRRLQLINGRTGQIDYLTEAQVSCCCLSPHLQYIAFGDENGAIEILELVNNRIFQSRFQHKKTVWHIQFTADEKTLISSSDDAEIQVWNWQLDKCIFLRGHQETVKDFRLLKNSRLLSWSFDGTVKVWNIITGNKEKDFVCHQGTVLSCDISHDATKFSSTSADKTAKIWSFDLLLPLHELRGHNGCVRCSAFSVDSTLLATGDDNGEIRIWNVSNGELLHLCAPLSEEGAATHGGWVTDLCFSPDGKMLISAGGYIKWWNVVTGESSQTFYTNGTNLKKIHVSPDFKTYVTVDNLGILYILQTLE

[3] = target: T2, Sentrin-specific protease 7 (Homo sapiens, UniProt Q9BQF6); assay: SENP7 protease inhibitors, SAR follow-up, biochemical, luminescence (AID 504497); format: functional
T2 sequence (Q9BQF6 whole entry): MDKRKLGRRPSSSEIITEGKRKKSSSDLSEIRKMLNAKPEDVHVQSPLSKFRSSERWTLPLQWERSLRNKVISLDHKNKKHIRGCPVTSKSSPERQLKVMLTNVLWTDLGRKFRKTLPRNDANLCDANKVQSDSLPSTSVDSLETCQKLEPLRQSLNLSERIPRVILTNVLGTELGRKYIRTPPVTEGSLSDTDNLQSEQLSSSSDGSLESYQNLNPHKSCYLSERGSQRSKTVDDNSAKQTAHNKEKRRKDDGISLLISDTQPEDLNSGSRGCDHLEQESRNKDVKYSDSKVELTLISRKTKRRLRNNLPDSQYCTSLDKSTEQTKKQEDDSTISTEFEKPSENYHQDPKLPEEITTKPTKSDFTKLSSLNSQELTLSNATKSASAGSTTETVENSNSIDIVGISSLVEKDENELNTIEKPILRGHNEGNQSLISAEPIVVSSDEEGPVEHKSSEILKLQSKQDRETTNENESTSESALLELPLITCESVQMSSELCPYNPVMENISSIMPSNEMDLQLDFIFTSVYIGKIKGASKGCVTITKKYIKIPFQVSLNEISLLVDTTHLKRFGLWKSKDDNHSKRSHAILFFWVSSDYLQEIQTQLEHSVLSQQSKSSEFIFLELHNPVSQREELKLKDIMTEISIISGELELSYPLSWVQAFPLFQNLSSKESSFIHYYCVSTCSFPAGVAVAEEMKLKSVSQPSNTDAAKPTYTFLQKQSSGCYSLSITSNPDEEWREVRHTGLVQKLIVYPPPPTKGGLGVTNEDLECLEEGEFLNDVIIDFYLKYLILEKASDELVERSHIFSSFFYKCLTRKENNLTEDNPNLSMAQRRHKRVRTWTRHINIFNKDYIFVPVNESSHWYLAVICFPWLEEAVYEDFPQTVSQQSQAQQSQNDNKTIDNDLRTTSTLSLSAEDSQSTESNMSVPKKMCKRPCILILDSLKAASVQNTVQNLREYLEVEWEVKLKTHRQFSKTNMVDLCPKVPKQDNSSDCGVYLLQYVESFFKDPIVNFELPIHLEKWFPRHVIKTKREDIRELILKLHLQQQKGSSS

[4] = target: Serine/threonine-protein kinase PAK 4 (Homo sapiens, UniProt O96013); format: functional;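 note: value obtained within a kinome profiling panel in which PAK4 was one of the panel members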
Serine/threonine-protein kinase PAK 4, sequence (O96013 whole entry): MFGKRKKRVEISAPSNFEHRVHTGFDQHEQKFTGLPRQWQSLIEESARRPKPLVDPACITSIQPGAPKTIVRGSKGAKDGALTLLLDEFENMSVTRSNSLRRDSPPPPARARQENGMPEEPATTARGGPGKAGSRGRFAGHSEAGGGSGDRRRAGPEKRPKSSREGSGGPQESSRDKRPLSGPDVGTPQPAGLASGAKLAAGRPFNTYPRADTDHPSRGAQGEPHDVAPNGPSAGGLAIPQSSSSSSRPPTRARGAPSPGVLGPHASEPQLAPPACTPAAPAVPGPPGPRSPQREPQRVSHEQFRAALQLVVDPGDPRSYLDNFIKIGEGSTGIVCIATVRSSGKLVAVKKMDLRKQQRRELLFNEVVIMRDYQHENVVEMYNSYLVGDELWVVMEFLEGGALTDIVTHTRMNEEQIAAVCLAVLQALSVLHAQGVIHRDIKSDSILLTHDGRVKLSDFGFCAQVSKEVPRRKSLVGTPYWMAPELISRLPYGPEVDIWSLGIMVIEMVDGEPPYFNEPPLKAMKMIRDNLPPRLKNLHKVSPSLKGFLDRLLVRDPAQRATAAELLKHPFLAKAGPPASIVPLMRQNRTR

[5] = target: High affinity nerve growth factor receptor (Homo sapiens, UniProt P04629); format: functional;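 note: NTRK1 tested as one member of a kinome-wide profiling panel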
High affinity nerve growth factor receptor, sequence (P04629 whole entry): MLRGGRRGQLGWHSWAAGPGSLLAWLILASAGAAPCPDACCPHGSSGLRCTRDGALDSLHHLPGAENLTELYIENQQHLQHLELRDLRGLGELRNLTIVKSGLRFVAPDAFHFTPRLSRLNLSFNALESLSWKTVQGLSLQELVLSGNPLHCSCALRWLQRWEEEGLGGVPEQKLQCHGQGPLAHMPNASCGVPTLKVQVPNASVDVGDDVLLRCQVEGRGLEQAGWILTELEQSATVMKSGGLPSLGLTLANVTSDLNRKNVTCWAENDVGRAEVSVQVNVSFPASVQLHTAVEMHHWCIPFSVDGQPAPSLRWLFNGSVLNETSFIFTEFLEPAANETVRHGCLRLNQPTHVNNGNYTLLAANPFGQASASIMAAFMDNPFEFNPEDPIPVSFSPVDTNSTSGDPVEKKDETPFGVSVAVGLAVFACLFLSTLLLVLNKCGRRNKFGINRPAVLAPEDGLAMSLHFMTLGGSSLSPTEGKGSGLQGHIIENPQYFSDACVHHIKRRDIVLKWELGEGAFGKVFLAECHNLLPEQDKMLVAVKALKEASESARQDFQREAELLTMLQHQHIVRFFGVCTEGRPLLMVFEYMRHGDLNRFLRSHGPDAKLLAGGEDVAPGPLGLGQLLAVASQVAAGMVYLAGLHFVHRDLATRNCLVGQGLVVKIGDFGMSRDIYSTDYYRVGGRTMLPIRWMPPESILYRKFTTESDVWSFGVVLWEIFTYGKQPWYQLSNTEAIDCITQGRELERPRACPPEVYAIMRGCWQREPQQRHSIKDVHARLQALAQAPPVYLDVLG

[6] = target: Cyclin-dependent kinase 2 (Homo sapiens, UniProt P24941); format: functional;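 note: CDK2 measured as one member of a broad kinome profiling panel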
[7] = target: Mast/stem cell growth factor receptor Kit (Homo sapiens, UniProt P10721); format: functional;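 note: KIT entry within a kinase panel assay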
Mast/stem cell growth factor receptor Kit, sequence (P10721 whole entry): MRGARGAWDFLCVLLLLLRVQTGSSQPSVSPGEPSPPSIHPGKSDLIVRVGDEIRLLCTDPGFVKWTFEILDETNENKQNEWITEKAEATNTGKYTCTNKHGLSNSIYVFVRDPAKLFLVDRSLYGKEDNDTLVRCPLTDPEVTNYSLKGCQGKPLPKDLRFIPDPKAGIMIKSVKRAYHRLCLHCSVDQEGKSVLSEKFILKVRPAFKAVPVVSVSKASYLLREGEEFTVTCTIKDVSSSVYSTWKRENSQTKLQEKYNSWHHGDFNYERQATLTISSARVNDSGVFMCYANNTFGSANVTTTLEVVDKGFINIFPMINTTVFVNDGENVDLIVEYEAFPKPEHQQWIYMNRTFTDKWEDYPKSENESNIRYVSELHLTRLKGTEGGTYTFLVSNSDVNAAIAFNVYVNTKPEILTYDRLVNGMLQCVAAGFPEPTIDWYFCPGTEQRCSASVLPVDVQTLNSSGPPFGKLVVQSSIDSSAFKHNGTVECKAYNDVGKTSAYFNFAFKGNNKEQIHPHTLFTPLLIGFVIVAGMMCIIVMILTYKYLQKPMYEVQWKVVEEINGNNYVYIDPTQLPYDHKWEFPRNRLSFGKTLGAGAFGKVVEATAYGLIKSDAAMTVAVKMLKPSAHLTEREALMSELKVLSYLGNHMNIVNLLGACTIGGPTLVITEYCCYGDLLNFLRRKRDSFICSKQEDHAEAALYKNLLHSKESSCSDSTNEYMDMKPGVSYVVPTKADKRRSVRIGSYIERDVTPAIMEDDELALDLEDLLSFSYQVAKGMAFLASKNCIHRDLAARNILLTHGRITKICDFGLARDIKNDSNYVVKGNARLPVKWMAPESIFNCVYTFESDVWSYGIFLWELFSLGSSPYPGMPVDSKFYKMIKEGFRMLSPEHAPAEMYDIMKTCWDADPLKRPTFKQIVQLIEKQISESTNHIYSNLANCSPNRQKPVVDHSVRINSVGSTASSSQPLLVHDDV

[8] = target: Protein kinase C gamma type (Homo sapiens, UniProt P05129); format: functional

Tyrosyl-DNA phosphodiesterase 2, sequence (O95551 whole entry): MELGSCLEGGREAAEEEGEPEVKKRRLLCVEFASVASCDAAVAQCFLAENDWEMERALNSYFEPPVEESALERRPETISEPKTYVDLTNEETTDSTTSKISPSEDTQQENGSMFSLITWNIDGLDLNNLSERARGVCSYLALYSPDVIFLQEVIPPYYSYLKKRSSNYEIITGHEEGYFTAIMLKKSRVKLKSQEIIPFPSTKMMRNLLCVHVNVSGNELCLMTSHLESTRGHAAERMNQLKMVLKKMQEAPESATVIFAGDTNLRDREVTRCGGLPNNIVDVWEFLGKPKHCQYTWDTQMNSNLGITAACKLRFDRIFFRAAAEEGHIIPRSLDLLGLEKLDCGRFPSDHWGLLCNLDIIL

| Compound | IC50 [1] | IC50 [2] | IC50 [3] | Ki [4] | Ki [5] | Ki [6] | Ki [7] | Ki [8] |
| --- | --- | --- | --- | --- | --- | --- | --- | --- |
| COc1ccc(C(C[N+](=O)[O-])c2c(C)[nH]n(-c3ccccc3)c2=O)cc1 (stereo not drawn) | 6.91 µM (active) | 14.6 µM (active) | 12.3 µM (active) | – | – | – | – | – |
| Oc1c2ccccc2c2c3c(cccc13)N=N2 [SP-600125] | – | – | – | > 5.01 µM (inactive) | 1.26 µM (active) | 0.0794 µM (active) | 1.26 µM (active) | 0.316 µM (active) |
